Assay: Partitioning of pure artemisinin between hexane and aqueous ethanol (1:1 v/v), layers quantified by TLC
Format: physicochemical
Experimental: To select an efficient solvent for extraction of artemisinin different solvents systems were tested. For this 10 g of dry powdered leaves of Artemisia annua were extracted with methanol, 20% aqueous methanol, ethanol, 20% aqueous ethanol or hexane as a solvent individually in separate tubes. 10 ml of the solvent was taken out of the tube at 2, 4 and 6 h of incubation. The fraction was evaporated to dryness on a water bath, extract was solubilized in 2.0 ml solvent and spots (5 μl) were loaded on a TLC plate along with pure artemisinin dissolved in the respective solvent @ 1 mg/ml taken as controls. The TLC was carried out in a glass TLC tank saturated with the mobile phase hexane:diethyl ether (1:1), plates were developed to a height of 15 cm. Later plates were dried and spots were visualized by immersing the plates in a developing reagent (glacial acetic acid:sulfuric acid:anisaldehyde, 50:1:0.5), followed by heating the plate at 110° C. for 15 minutes or until pink spots of artemisinin appeared. For quantification, TLC spots corresponding to artemisinin were scanned at 540 and 610 nm dual wavelength mode of TLC scanner. It is clear from the table that pure ethanol and methanol rapidly extract the artemisinin as compared to hexane, however after a certain period of time concentration of artemisinin starts diminishing in methanol and ethanol extracts in contrast to hexane extract possibly because of decomposition or transformation of artemisinin into another unknown compound. Mixing of water in methanol caused a severe decay of artemisinin extraction. Ethanol was more efficient for extracting more artemisinin in less time period as compared to methanol and hexane both. On the basis of lower cost and rapid extraction efficiency ethanol will be a suitable solvent.
Pure artemisinin (0.2 g) was dissolved in different test tubes containing 1:1 (v/v) mixture of two non-miscible solvents, hexane and aqueous ethanol (i.e. ethanol mixed in water), where concentration of ethanol varied from 20 to 80%. After completely solubilizing the artemisinin in the mixture, two layers of hexane and ethanol were separated with the help of a separating funnel. The individual layer from different test tube was tested for the presence of artemisinin content by TLC as in example 1. The results showing the % fraction of artemisinin partitioned between the hexane and aqueous ethanolic layers separated from each tube are given in the Table -2.

[1] = Hexane:20% aqueous-ethanol (1:1 v/v)
[2] = Hexane:40% aqueous-ethanol (1:1 v/v)
[3] = Hexane:60% aqueous-ethanol (1:1 v/v)
[4] = Hexane:80% aqueous-ethanol (1:1 v/v)

% artemisinin in ethanol layer [1]: 100% | % artemisinin in hexane layer [1]: 0% | % artemisinin in ethanol layer [2]: 90% | % artemisinin in hexane layer [2]: 10% | % artemisinin in ethanol layer [3]: 30% | % artemisinin in hexane layer [3]: 70% | % artemisinin in ethanol layer [4]: 0% | % artemisinin in hexane layer [4]: 100%
SMILES: C[C@@H]1CC[C@H]2[C@@H](C)C(=O)O[C@@H]3O[C@@]4(C)CC[C@@H]1[C@]32OO4 [artemisinin]

Source: patent US20030185914A1, “Process for isolating artemisinin from artemisia annua” (priority 2002, published 2003)
